Several values for one entry are separate records, joined by “and”; a condition that tells them apart may be missing. Identical values can stand only once.
Columns and labels:
[1] = tested on: human female patients diagnosed as having endometriosis; assay: Phase 2b human clinical trial in endometriosis, 24-week treatment and post-treatment follow-up; assay type: in vivo; details: for Bone Mineral Density (Mean % change from baseline): spine
Protocol: This example describes the results of a Phase 2b human clinical trial undertaken to evaluate the efficacy of a GnRH antagonist represented by formula (VI) in a series of patients suffering from an estrogen-dependent disease. In this trial, a series of human female patients diagnosed as having endometriosis were administered the choline salt of 3-[2-fluoro-5-(2,3-difluoro-6-methoxybenzyloxy)4-methoxyphenyl]-2,4-dioxo-1,2,3,4-tetrahydrothieno [3,4d]pyrimidine-5-carboxylic acid periodically over the course of a 24-week treatment period. After 24 weeks of treatment, various patients entered a 24-week post-treatment follow-up period during which the patients were monitored for serum β17-estradiol (E2) concentration, severity of disease symptoms, and bone mineral density.
A series of n=328 human female patients having clinically-diagnosed endometriosis were randomly assigned to treatment arms in which patients were to be administered placebo or the GnRH antagonist in a once-daily amount of 50 mg/day, 100 mg/day, 75 mg/day, or 200 mg/day. Patients initially treated with placebo (plc) were administered the GnRH antagonist in an amount of 100 mg/day after 12 weeks. Also, after 12 weeks, patients that were initially administered 75 mg/day were provided a higher (100 mg/day) or lower (50 mg/day) dosage of the GnRH antagonist based on the patients' E2 levels at the 12-week point. The E2 levels for this group of patients is represented by “75 mg (TD)” in FIGS. 1-3. Patients that were administered 75 mg through the end of the treatment period are represented by “75 mg (FD)” in FIGS. 1-3.
After 24 weeks of continuous, once-daily treatment, administration of the GnRH antagonist ceased. A set of n=65 patients entered the 24-week post-treatment follow-up study. Following the 24-week treatment period, these patients were periodically monitored. The median E2 levels of patients that were administered the GnRH antagonist during the original 24-week treatment period and that subsequently entered the 24-week post-treatment follow-up study are shown in FIG. 1. FIGS. 2 and 3 show the mean change in dyspareunia and dyschezia scores for such patients over the 24-week treatment period and a 12-week portion of the post-treatment follow-up period.

[2] = tested on: human female patients diagnosed as having adenomyosis; assay: human clinical trial in adenomyosis (single-patient longitudinal case study and multi-patient analysis, n = 6); assay type: in vivo
From the text: This examples describes the results of a human clinical trial conducted to evaluate the ability of a GnRH antagonist, 3-[2-fluoro-5-(2,3-difluoro-6-methoxybenzyloxy)4-methoxyphenyl]-2,4-dioxo-1,2,3,4-tetrahydrothieno [3,4d]pyrimidine-5-carboxylic acid (represented by formula (VI)), or a pharmaceutically acceptable salt thereof, to treat adenomyosis, an estrogen-dependent disease, in human patients diagnosed as having this condition.
One aim of this study was to investigate the ability of the GnRH antagonist to maintain its therapeutic effects despite being administered to patients in a progressively lower dosage throughout the trial. To this end, the patients treated in this study was first administered the GnRH antagonist of formula (VI) in an amount of 200 mg/day during an initial 12-week period. The GnRH antagonist was then administered to the patients in a reduced amount of 100 mg/day during a subsequent 12-week period. The patients' responsiveness to the GnRH antagonist was monitored throughout the study.
In addition to assessing the effectiveness of the GnRH antagonist when administered at lower doses, another aim of this study was to evaluate the ability of the GnRH antagonist to sustain its therapeutic effects even after treatment was ceased altogether. Accordingly, after being periodically administered the GnRH antagonist of formula (VI) over the course of 24 weeks, first in an amount of 200 mg/day and then in an amount of 100 mg/day, treatment with the GnRH antagonist was halted entirely. The patients were then monitored during a post-treatment follow-up period to analyze the extent to which the therapeutic effects of the compound were sustained.
To test the effects of compound (VI), a total of n=6 human female patients diagnosed as having adenomyosis were administered compound (VI) in accordance with the dosing schedule described above. One of these patients in particular was closely monitored beginning well before their treatment with compound (VI) was initiated. The specific results of this patient's therapy are described in the section entitled “Single-Patient Longitudinal Case Study,” below. The cumulative set of results for all 6 patients is reported in the section entitled “Multi-Patient Analysis,” below.
As part of the clinical trial, a case study was conducted in which a single patient of reproductive age having clinically diagnosed adenomyosis was monitored during the course of treatment with compound (VI). The patient was nulliparous. Two years before the study began, the patient presented with heavy menstrual bleeding, pelvic pain, and dysmenorrhea. […] Their gynecologist prescribed ulipristal acetate (UPA), a selective progesterone receptor modulator (SPRM), to be administered in an amount of 5 mg/day over the course of a treatment period lasting three months.
The patient was then recommended for treatment with the GnRH antagonist represented by formula (VI) herein. Accordingly, the patient was orally administered compound (VI) in an amount of 200 mg/day for three months. Following this initial three-month period, the patient was orally administered compound (VI) in a reduced amount of 100 mg/day for a subsequent three-period. During both treatment periods, compound (VI) was administered to the patient in the form of a choline salt.
The patient was recommended for once-daily treatment with the GnRH antagonist of formula (VI). Accordingly, the patient was administered the GnRH antagonist of formula (VI) in an amount of 200 mg/day during a first treatment period, which lasted three months. At the conclusion of the first treatment period, the patient began a second treatment period in which they were administered compound (VI) in a reduced amount of 100 mg/day for three months. During both treatment periods, compound (VI) was administered to the patient in the form of a choline salt. […]

[3] = n = 6, after 12 weeks, 200 mg/day
[4] = single patient, after 24 weeks (200 mg/day 12 weeks, then 100 mg/day 12 weeks)

## COc1cc(F)c(-n2c(=O)[nH]c3csc(C(=O)O)c3c2=O)cc1OCc1c(OC)ccc(F)c1F [Compound (VI), 3-[2-fluoro-5-(2,3-difluoro-6-methoxybenzyloxy)4-methoxyphenyl]-2,4-dioxo-1,2,3,4-tetrahydrothieno [3,4d]pyrimidine-5-carboxylic acid]
[1]; 75 mg once daily (choline salt), after 24 weeks of treatment, n = 48
  Overall Pelvic Pain Responder Rate (VRS score reduction of > 30% from baseline): 70.8%
[1]; 75 mg once daily for 24 weeks, 12 weeks after cessation of treatment, n = 7
  Overall Pelvic Pain Responder Rate (VRS score reduction of > 30% from baseline): 87.5%
[1]; 200 mg once daily (choline salt), after 24 weeks of treatment, n = 44
  Overall Pelvic Pain Responder Rate (VRS score reduction of > 30% from baseline): 77.3%
[1]; 200 mg once daily for 24 weeks, 12 weeks after cessation of treatment, n = 10
  Overall Pelvic Pain Responder Rate (VRS score reduction of > 30% from baseline): 70.0%
[1]; after cessation of 24-week once-daily treatment, 12-week portion of follow-up, FIG. 2
  dyspareunia, Verbal Rating Score (VRS): sustained reduction
[1]; after cessation of 24-week once-daily treatment, 12-week portion of follow-up, FIG. 3
  dyschezia, Numerical Rating Score (NRS): sustained reduction
[1]; 75 mg once daily for 24 weeks, 12 weeks after cessation of treatment
  Bone Mineral Density (Mean % change from baseline): +0.313%
[1]; 75 mg once daily, after 24 weeks of treatment
  Bone Mineral Density (Mean % change from baseline): −0.798%
[1]; 200 mg once daily for 24 weeks, 12 weeks after cessation of treatment
  Bone Mineral Density (Mean % change from baseline): +1.135%
[1]; 200 mg once daily, after 24 weeks of treatment
  Bone Mineral Density (Mean % change from baseline): −2.602%
[2]; all n = 6 cases, first 12 weeks, 200 mg/day
  serum E2: less than 20 pg/ml
[2]; all n = 6 patients, after 12 weeks, 200 mg/day
  anemia: resolved
[2]; all n = 6 patients, after 24 weeks
  adenomyotic lesions by MRI: remained smaller than those observed at baseline
[2]; each of n = 6 patients, after 24 weeks
  BMD by DEXA: either minimal change or no change from baseline
[2]; individual patients 1-3, 200 mg/day 12 weeks, then 100 mg/day 12 weeks, MRI
  Week 24 Uterine Volume: 440 cm^3 and 75 cm^3 and 266 cm^3
[2]; individual patients 1-6, 200 mg/day oral for 12 weeks (choline salt), MRI
  Week 12 Uterine Volume: 81 cm^3 and 70 cm^3 (2×) and 290 cm^3 and 84 cm^3 and 138 cm^3
[2]; n = 6, 200 mg/day treatment period, resolved after reduction to 100 mg/day
  side effects: hot flushes and vaginal dryness
[2]; [3]
  menstrual status: sustained amenorrhea
  pelvic pain: substantially reduced
[2]; n = 6, after 12 weeks, 200 mg/day, baseline mean 320 cm^3
  mean uterine volume by MRI: 122 cm^3
[2]; n = 6, weeks 13-24, 100 mg/day
  menstrual status: remained in amenorrhea
[2]; single patient, after 24 weeks
  all of the remaining EHP-30 scales: 0
  endometrial thickness by vaginal ultrasound: 3 mm
[2]; [4]
  hemoglobin (Hb) level: 13.6 g/dL
  uterine volume by MRI: 440 cm^3
[2]; single patient, after 24 weeks of treatment
  menstrual status: still in amenorrhea
[2]; single patient, after 24 weeks, baseline 58.3
  EHP-30 scale for emotional well-being: 4.2
[2]; single patient, after first 12 weeks, 200 mg/day, 16-17 weeks before treatment
  uterine volume on clinical evaluation, equivalent weeks of gestation: 10 weeks of gestation
[2]; single patient, after first 12 weeks, 200 mg/day, baseline approximately 875 cm^3
  uterine volume by MRI: 290 cm^3
[2]; single patient, after four weeks of 200 mg/day oral (choline salt), baseline 45 pg/mL
  concentration of E2: less than 20 pg/mL
[2]; single patient, after reduction to 100 mg/day
  side effects (hot flushes, vaginal dryness) after dose reduction: disappeared
[2]; single patient, end of first 12 weeks, 200 mg/day
  5-scaled EHP-30 score: 0
[2]; single patient, first treatment period, 200 mg/day
  side effects: a few instances of hot flushes and vaginal dryness
[2]; single patient, initial 12-week period, 200 mg once daily
  menstrual status: remained in amenorrhea
[2]; single patient, week 12, 200 mg/day, baseline 10 g/dL
  hemoglobin (Hb) level: 12.2 g/dL
[2]; single patient, week 16, reduced dose 100 mg/day (weeks 13-24)
  E2 level: 38 pg/mL
[2]; single patient, week 20, reduced dose 100 mg/day (weeks 13-24)
  E2 level: 26 pg/mL
[2]; single patient, week 24, reduced dose 100 mg/day (weeks 13-24)
  E2 level: 52 pg/mL
[2]; single patient, week 24 versus baseline
  bone mineral density T-scores and Z-scores (femoral neck, lumbar spine), DEXA: unchanged

— US20220305017A1, “COMPOSITIONS AND METHODS FOR THE TREATMENT OF ESTROGEN-DEPENDENT DISORDERS” (ObsEva S.A., priority 2019, published 2022)
